Assay results as given in US20020028938A1, “Prostaglandin endoperoxide H synthase biosynthesis inhibitors” (priority 1997, published 2002).

Row | SMILES | melting point
1 | CC(C)Oc1c(-c2ccc(S(C)(=O)=O)cc2)cnn(-c2cccc(Cl)c2)c1=O [Example 201, 2-(3-Chlorophenyl)-4-(2-propoxy)-5-[4-(methylsulfonyl)phenyl]-3(2H)-pyridazinone] | 134 to 136 °C
2 | CC(C)Oc1c(-c2ccc(S(C)(=O)=O)cc2)cnn(-c2cccc(F)c2)c1=O [Example 202, 2-(3-Fluorophenyl)-4-(2-propoxy)-5-[4-(methylsulfonyl)phenyl]-3(2H)-pyridazinone] | 110 to 112 °C
3 | CC(C)Oc1c(-c2ccc(S(C)(=O)=O)cc2)cnn(-c2cc(F)ccc2F)c1=O [Example 204, 2-(2,5-Difluorophenyl)-4-(2-propoxy)-5-[4-(methylsulfonyl)phenyl]-3(2H)-pyridazinone] | 161 to 164 °C
4 | CS(=O)(=O)c1ccc(-c2cnn(-c3cccc(Cl)c3)c(=O)c2COC(=O)c2ccccc2)cc1 [Example 208, 2-(3-Chlorophenyl)-4-(benzoyloxymethyl)-5-[4-(methylsulfonyl)phenyl]-3(2H)-pyridazinone] | 50 to 70 °C
5 | CS(=O)(=O)c1ccc(-c2cnn(CC(F)(F)F)c(=O)c2-c2ccc3c(c2)COC3=O)cc1 [Example 221, 2-(2,2,2-Trifluoroethyl)-4-(1-oxo-1,3-dihydro-2-benzofuran-5-yl)-5-[4-(methylsulfonyl)phenyl]-3(2H)-pyridazinone] | 237 to 239 °C
6 | C=CCc1c(-c2ccc(S(C)(=O)=O)cc2)cnn(CC(F)(F)F)c1=O [Example 222, 2-(2,2,2-Trifluoroethyl)-4-(2-propenyl)-5-[4-(methylsulfonyl)phenyl]-3(2H)-pyridazinone] | 192 to 195 °C
7 | CC=C(C)c1c(-c2ccc(S(C)(=O)=O)cc2)cnn(CC(F)(F)F)c1=O [Example 223, 2-(2,2,2-Trifluoroethyl)-4-(2-buten-2-yl)-5-[4-(methylsulfonyl)phenyl]-3(2H)-pyridazinone] | 175 to 180 °C
8 | Cc1ccc(-c2c(-c3ccc(S(C)(=O)=O)cc3)cnn(-c3ccc(F)cc3)c2=O)cc1 [Example 229, 2-(4-Fluorophenyl)-4-(4-methylphenyl)-5-[4-(methylsulfonyl)-phenyl]-3(2H)-pyridazinone] | 242 to 244 °C
9 | CS(=O)(=O)c1ccc(-c2cnn(-c3ccc(F)c(F)c3)c(=O)c2Cc2ccccc2)cc1 [Example 233, 2-(3,4-Difluorophenyl)-4-benzyl-5-[4-(methylsulfonyl)phenyl]-3(2H)-pyridazinone] | 166 to 168 °C
10 | CC#Cc1c(-c2ccc(S(C)(=O)=O)cc2)cnn(-c2ccc(F)c(F)c2)c1=O [Example 238, 2-(3,4-Difluorophenyl)-4-(1-propynyl)-5-[4-(methylsulfonyl)phenyl]-3(2H)-pyridazinone] | 149 to 150 °C
11 | Cc1ccc(-c2c(-c3ccc(S(C)(=O)=O)cc3)cnn(-c3ccc(F)cc3)c2=O)cc1F [Example 250, 2-(4-Fluorophenyl)-4-(3-fluoro-4-methylphenyl)-5-[4-(methylsulfonyl)phenyl]-3(2H)-pyridazinone] | 245 to 248 °C
12 | CS(=O)(=O)c1ccc(-c2cnn(-c3ccc(F)c(F)c3)c(=O)c2Cc2ccc(F)c(F)c2)cc1 [Example 255, 2-(3,4-Difluorophenyl)-4-(3,4-difluorobenzyl)-5-[4-(methylsulfonyl)phenyl]-3(2H)-pyridazinone] | 177 to 179 °C
13 | CC(C)CCc1c(-c2ccc(S(C)(=O)=O)c(F)c2)cnn(-c2ccc(F)c(F)c2)c1=O [Example 258, 2-(3,4-Difluorophenyl)-4-(3-methylbutyl)-5-[3-fluoro-4-(methylsulfonyl)phenyl]-3(2H)-pyridazinone] | 119 to 121 °C
14 | CSc1cc(-n2ncc(-c3ccc(S(C)(=O)=O)cc3)c(-c3ccc(F)cc3)c2=O)ccc1F [Example 259, 2-[4-Fluoro-3-(methylthio)phenyl]-4-(4-fluorophenyl)-5-[4-(methylsulfonyl)phenyl]-3(2H)-pyridazinone] | 105 to 107 °C
15 | CS(=O)(=O)c1ccc(-c2cnn(CC(F)(F)F)c(=O)c2Oc2ccc(C#N)cc2)cc1 [Example 264, 2-(2,2,2-Trifluoroethyl)-4-(4-cyanophenoxy)-5-[4-(methylsulfonyl)phenyl]-3(2H)-pyridazinone] | 179 to 181 °C
16 | CS(=O)(=O)c1ccc(-c2cnn(CC(F)(F)F)c(=O)c2Oc2ccc(-c3ccccc3)cc2)cc1 [Example 268, 2-(2,2,2-Trifluoroethyl)-4-(4-phenylphenoxy)-5-[4-(methylsulfonyl)phenyl]-3(2H)-pyridazinone] | 163 to 165 °C
17 | CS(=O)(=O)c1ccc(-c2cnn(CC(F)(F)F)c(=O)c2OCc2ccccc2)cc1 [Example 270, 2-(2,2,2-Trifluoroethyl)-4-(phenylmethoxy)-5-[4-(methylsulfonyl)phenyl]-3(2H)-pyridazinone] | 121 to 123 °C
18 | CS(=O)(=O)c1ccc(-c2cnn(CC(F)(F)F)c(=O)c2OC2CCc3ccccc32)cc1 (stereo not drawn) [Example 276, 2-(2,2,2-Trifluoroethyl)-4-(1-indanyloxy)-5-[4-(methylsulfonyl)phenyl]-3(2H)-pyridazinone] | 113 to 114 °C

Row | SMILES | melting point
19 | CC(C)(C)CCOc1c(-c2ccc(S(C)(=O)=O)cc2)cnn(CC(F)(F)F)c1=O [Example 280, 2-(2,2,2-Trifluoroethyl)-4-(3,3-dimethylbutoxy)-5-[4-(methylsulfonyl)phenyl]-3(2H)-pyridazinone] | 83 to 85 °C
20 | CS(=O)(=O)c1ccc(-c2cnn(-c3ccc(F)c(F)c3)c(=O)c2Oc2ccc(Br)cc2)cc1 [Example 282, 2-(3,4-Difluorophenyl)-4-(4-bromophenoxy)-5-[4-(methylsulfonyl)phenyl]-3(2H)-pyridazinone] | 196 to 199 °C
21 | CS(=O)(=O)c1ccc(-c2cnn(CC(F)(F)F)c(=O)c2SCc2ccccc2)cc1 [Example 285, 2-(2,2,2-Trifluoroethyl)-4-phenylmethylthio-5-[4-(methylsulfonyl)phenyl]-3(2H)-pyridazinone] | 108 to 111 °C
22 | CC(C)(C)Sc1c(-c2ccc(S(C)(=O)=O)cc2)cnn(CC(F)(F)F)c1=O [Example 290, 2-(2,2,2-Trifluoroethyl)-4-(tert-butylthio)-5-[4-(methylsulfonyl)phenyl]-3(2H)-pyridazinone] | 186 to 189 °C
23 | CS(=O)(=O)c1ccc(-c2cnn(CC(F)(F)F)c(=O)c2N)cc1 [Example 294, 2-(2,2,2-Trifluoroethyl)-4-amino-5-[4-(methylsulfonyl)phenyl]-3(2H)-pyridazinone] | > 260 °C
24 | COCCCNc1c(-c2ccc(S(C)(=O)=O)cc2)cnn(CC(F)(F)F)c1=O [Example 295, 2-(2,2,2-Trifluoroethyl)-4-(3-methoxylpropylamino)-5-[4-(methylsulfonyl)phenyl]-3(2H)-pyridazinone] | 110 to 113 °C
25 | CS(=O)(=O)c1ccc(-c2cnn(CC(F)(F)F)c(=O)c2NC2CCCC2)cc1 [Example 296, 2-(2,2,2-Trifluoroethyl)-4-(cyclopentylamino)-5-[4-(methylsulfonyl)phenyl]-3(2H)-pyridazinone] | 134 to 139 °C
26 | COc1ccc(CCNc2c(-c3ccc(S(C)(=O)=O)cc3)cnn(CC(F)(F)F)c2=O)cc1OC [Example 298, 2-(2,2,2-Trifluoroethyl)-4-(3,4-dimethoxyphenethylamino)-5-[4-(methylsulfonyl)phenyl]-3(2H)-pyridazinone] | 163 to 165 °C
27 | CS(=O)(=O)c1ccc(-c2cnn(CC(F)(F)F)c(=O)c2NCC2CC2)cc1 [Example 302, 2-(2,2,2-Trifluoroethyl)-4-(cyclopropylmethylamino)-5-[4-(methylsulfonyl)phenyl]-3(2H)-pyridazinone] | 145 to 146 °C
28 | CS(=O)(=O)c1ccc(-c2cnn(CC(F)(F)F)c(=O)c2NC2CCc3ccccc32)cc1 (stereo not drawn) [Example 303, 2-(2,2,2-Trifluoroethyl)-4-(2,3-dihydro-1H-inden-1-ylamino)-5-[4-(methylsulfonyl)phenyl]-3(2H)-pyridazinone] | 155 to 158 °C
29 | CS(=O)(=O)c1ccc(-c2cnn(CC(F)(F)F)c(=O)c2N2CCCCC2)cc1 [Example 304, 2-(2,2,2-Trifluoroethyl)-4-(1-piperidinyl)-5-[4-(methylsulfonyl)phenyl]-3(2H)-pyridazinone] | 160 to 161 °C
30 | CS(=O)(=O)c1ccc(-c2cnn(CC(F)(F)F)c(=O)c2NCCCO)cc1 [Example 305, 2-(2,2,2-Trifluoroethyl)-4-(3-hydroxypropylamino)-5-[4-(methylsulfonyl)phenyl]-3(2H)-pyridazinone] | 152 to 154 °C
31 | C[C@@H](O)CNc1c(-c2ccc(S(C)(=O)=O)cc2)cnn(CC(F)(F)F)c1=O [Example 307, 2-(2,2,2-Trifluoroethyl)-4-(2R-hydroxylpropylamino)-5-[4-(methylsulfonyl)phenyl]3(2H)-pyridazinone] | 140 to 142 °C
32 | CS(=O)(=O)c1ccc(-c2cnn(CC(F)(F)F)c(=O)c2NCCC#N)cc1 [Example 308, 2-(2,2,2-Trifluoroethyl)-4-(2-cyanoethylamino)-5-[4-(methylsulfonyl)phenyl]-3(2H)-pyridazinone] | 172 to 174 °C
33 | COc1cc(Nc2c(-c3ccc(S(C)(=O)=O)cc3)cnn(CC(F)(F)F)c2=O)cc(C(F)(F)F)c1 [Example 310, 2-(2,2,2-Trifluoroethyl)-4-[3-methoxy-5-(trifluoromethyl)anilino]-5-[4-(methylsulfonyl)phenyl]-3(2H)-pyridazinone] | 206 to 208 °C
34 | CS(=O)(=O)c1ccc(-c2cnn(CC(F)(F)F)c(=O)c2Nc2ccccc2)cc1 [Example 311, 2-(2,2,2-Trifluoroethyl)-4-anilino-5-[4-(methylsulfonyl)phenyl]-3(2H)-pyridazinone] | 154 to 156 °C
35 | CS(=O)(=O)c1ccc(-c2cnn(CC(F)(F)F)c(=O)c2Nc2cc(F)cc(F)c2F)cc1 [Example 315, 2-(2,2,2-Trifluoroethyl)-4-(2,3,5-trifluoroanilino)-5-[4-(methylsulfonyl)phenyl]-3(2H)-pyridazinone] | 190 to 194 °C
36 | CS(=O)(=O)c1ccc(-c2cnn(CC(F)(F)F)c(=O)c2Nc2ccc(F)cc2)cc1 [Example 316, 2-(2,2,2-Trifluoroethyl)-4-(4-fluoroanilino)-5-[4-(methylsulfonyl)phenyl]-3(2H)-pyridazinone] | 158 to 160 °C
